According to paper PMC12070228, “Investigations of Enteric-Coated Tablet Propyl Gallate-Induced Nephrotoxicity in Beagles as well as Human and Dog Renal Proximal Tubule Epithelial Cells” (ACS Pharmacology & Translational Science, 2025):

Experiments:
[1] = tested on: beagles; assay: Follow-up 4-week study 003: EC tablets vs PG alone in gelatin capsule, nephrotoxicity; assay type: in vivo, beagle dog; conditions: dogs, target PG 200 mg/kg/day once daily for 26 days, data not shown
[2] = tested on: dog RPTECs; assay: Cell Titer Glo cell viability assay; assay type: cell-based
Description: (§1) Frozen RPTECs vials were removed from liquid nitrogen storage and placed in a 37 °C water bath until the contents were completely thawed. The cells were gently resuspended and dispensed into a cell culture flask at a seeding density of ∼7500 cells/cm^2. The flask was placed in a 37 °C, 5% CO2 incubator. Cell cultures were given fresh medium the following morning and then every other day until the cell culture was approximately 90% confluent. When the cell culture was 90% confluent, medium was removed and the cells were rinsed with warmed PBS. Cells were harvested and split into new flasks based on a cell density of 7500 cells/cm^2. Cells were incubated at 37 °C for 3 days, with fresh medium added each day. Cells were harvested and diluted with growth medium to a density of 200,000 cells/mL. 100 μL of cell suspension per well (20,000 cells/well) was added to a clear-bottom 96-well microplate for luminescence assays. The plated cells were incubated in the 37 °C incubator for 3 days.
(§2) Each test compound (PG, GA, 4OMPG and 4OMGA) was initially reconstituted using DMSO at a concentration of 250 mg/mL. Serial dilutions of each compound were performed to reach concentrations of 4000 μM, 2000 μM, 1000 μM, 500 μM, 250 μM, 125 μM, 62.5 μM, 31.3 μM using warmed fresh supplemented medium with 0.4% (v/v) DMSO for all concentration levels. 100 μL of media containing the compound solution was added to the cells. Final concentrations of the compounds were 2000 μM, 1000 μM, 500 μM, 250 μM, 125 μM, 62.5 μM, 31.3 μM, 15.7 μM. […]
(§3) Cell media were removed and cells were washed twice with 200 μL of PBS buffer per well. […] The plate was gently shaken and incubated in the dark for 30 min and luminescence was measured using a PerkinElmer VICTOR X3 plate reader. […] Luminescence was measured using a PerkinElmer VICTOR X3 plate reader.
(§4) For cell-based assays, data was normalized to the negative control. Cell viability and GSH level were expressed as Cell viability or GSH level=Luminescence(each well)/Luminescence(average of DMSO negative control)

[3] = tested on: human RPTECs; assay: Cell Titer Glo cell viability assay; assay type: cell-based; conditions: RPTEC, 48 h exposure, estimated
Description: as §1, §2, §3, §4

[4] = tested on: dog RPTECs; assay: GSH-Glo glutathione assay; assay type: cell-based
Description: as §1
(§5) Each test compound (PG, GA, 4OMPG and 4OMGA) was initially reconstituted using DMSO at a concentration of 250 mg/mL. Serial dilutions of each compound were performed to reach concentrations of 4000 μM, 2000 μM, 1000 μM, 500 μM, 250 μM, 125 μM, 62.5 μM, 31.3 μM using warmed fresh supplemented medium with 0.4% (v/v) DMSO for all concentration levels. 100 μL of media containing the compound solution was added to the cells. Final concentrations of the compounds were 2000 μM, 1000 μM, 500 μM, 250 μM, 125 μM, 62.5 μM, 31.3 μM, 15.7 μM. AZ13599185 (tubulysin, 100 or 500 ng/mL) or cisplatin (30 μg/mL) and buthionine sulfoximine (BSO, 200 μM) were used as positive controls for CTG and GSH assays, respectively. 0.2% (v/v) DMSO in medium was used as the control for both assays, corrsponding to the final cocnetration of DMSO in the well. Three replicates for each compound at each concentration were prepared. Six replicates of positive or negative controls were prepared. Cells were incubated at 37 °C for approximately 48 h.
(§6) Cell media were removed and cells were washed twice with 200 μL of PBS buffer per well. CTG and GSH assay reagents were added to the wells and the assays were performed following the protocols of the Promega assay kits. Briefly, to perform the CTG assay, 100 μL of CTG solution was added into each well. The plate was gently shaken and incubated in the dark for 30 min and luminescence was measured using a PerkinElmer VICTOR X3 plate reader. To perform the GSH assay, luciferin-NT substrate and glutathione S-transferase were mixed into the GSH-GLo solution. 100 μL of the mixed solution was added into each well. The plate was gently shaken and incubated in the dark for at least 30 min. 100 μL of Luciferin Detection Reagent was added per well. The plate was gently shaken and incubated in the dark for at least 15 min. Luminescence was measured using a PerkinElmer VICTOR X3 plate reader.
as §4

[5] = tested on: human RPTECs; assay: GSH-Glo glutathione assay; assay type: cell-based
Description: as §1, §5, §6, §4

[6] = PG pharmacokinetics in healthy volunteers, clinical study NCT03362593 (validated LC-MS/MS); assay type: in vivo; conditions: human, plasma, oral EC MEDI7219 tablets, PG 200, 400 or 800 mg
Description: The total run time was 5.5 min.
The targeted quantitation of PG and phase-I/II metabolites was conducted using peak area ratio of analytes and internal standards in MultiQuant software (SCIEX).
Healthy volunteers participating in the clinical study NCT03362593 received single or multiple ascending doses of MEDI7219 tablets. Healthy volunteers received EC MEDI7219 tablets containing 200, 400, or 800 mg PG per tablet. The clinical plasma samples were analyzed using the validated method described above. […] After oral administration of tablets containing PG, the T max of PG was reached around 3–4 h postdose.

[7] = no reference given; cited from earlier work
[8] = ~48 h exposure, normalized to DMSO control

Tmax [6]: 3 to 4 h
SMILES: CCCOC(=O)c1cc(O)c(O)c(O)c1 [PG, propyl gallate]
Nephrotoxicity / kidney injury [1]: did not result in nephrotoxicity
EC50 ([2]; Canis lupus familiaris, RPTEC, dog RPTECs, 48 h exposure, estimated): ~46.5 µM
Relative difference in sensitivity between human and dog RPTECs ([2]; human EC50 vs dog EC50, cell viability): ~33 fold
EC50 [3]: ~1530 µM
GSH levels at high concentrations ([4]; ~48 h, high concentrations): reduction of GSH levels
Glutathione (GSH) levels [4, 8]: not in dog cells
GSH levels at high concentrations ([5]; ~48 h, high concentrations): reduction of GSH levels
Glutathione (GSH) levels [5, 8]: induced
Log P [7]: 2.13
